Measurements as given in patent US20150132229A1, “BIS AZAINOSITOL HEAVY METAL COMPLEXES FOR X-RAY IMAGING” (BAYER PHARMA AKTIENGESELLSCHAFT, priority 2012, published 2015).
Values belong to the substance of their own block, whether it stands above or below them.

Assays:
[1] = Stability of bis azainositol heavy metal complexes under heat sterilization (121° C., 45 min, pH 7.4; HPLC and ICP-OES); conditions: aqueous buffered solution pH 7.4, 5 mmol/L, 121° C. for 45 min in steam autoclave; absolute stability = HPLC peak area ratio x metal concentration ratio after/before
Method: The stability of bis azainositol heavy metal complexes was determined in aqueous, buffered solution at pH 7.4. The solution containing 5 mmol/L of the compound in a tightly sealed vessel was heated to 121° C. for 45 min in a steam autoclave. The metal concentration of the solution was determined by ICP-OES before and after heat treatment. The integrity of the compound was determined by HPLC analysis before and after heat treatment. Absolute stability was calculated as the ratio of the peak area of the compound after and before the heat treatment multiplied with the ratio of the metal concentration of the solution after and before heat treatment.
Column: Reversed phase C18. […] Solvent B: methanol, HPLC grade Gradient: gradients starting from 100% A and 0% B were used. Flow: 1 mL/min Detector D1: element specific detection by ICP-OES running at the most sensitive emission wavelength of the respective complexed metal. Detector D2: element specific detection by ICP-MS running at the most abundant isotope of the respective complexed metal.

[2] = test system: Han-Wistar rat; experiment: Preclinical X-ray imaging: contrast enhanced CT of an anaesthetized rat; assay type: in vivo; conditions: i.v. tail vein, 200 mg Lu per kg body weight, 149 mg Lu/mL, 120 kV
Method: The study was performed on a clinical CT unit (Sensation 64, Siemens Medical Solutions, Erlangen, Germany) with an anaesthetized rat. The compound described in example 2 was used as X-ray diagnostic agents in order to perform contrast enhanced CT imaging.
The study was performed on a healthy Han-Wistar rat. Initial anaesthesia was induced by inhalation of 4% Isoflurane (Baxter Deutschland GmbH, Unterschleiβheim, Germany) and maintained by 1.5% Isoflurane. The X-ray diagnostic agent (Example 2) at a concentration of 149 mg Lu/mL was administered intravenously via the tail vein by the help of a dedicated injection pump (flow rate=0.6 mL/s). A dosage of 200 mg Lu per kg body weight was used. In order to simulate a clinical condition the rat was placed within a tissue equivalent phantom (QRM, Möhrendorf, Germany) that mimics the human abdomen in respect of X-ray absorption.
An X-ray projection image (topogram) was acquired to adjust the measurement range to the thoracal region of the animal. The subsequent contrast enhanced measurement was done with following CT parameter settings: X-ray tube voltage=120 kV, mAs-product=160 mAs, tube rotational time=0.5 s, slice thickness=2.4 mm, measurement time=20 s. […]
The signal-time course in the left heart chamber was quantified by a region of interest analysis. […]

[3] = test system: mice; experiment: Tolerability in mice (behaviour and survival after 7 d); assay type: in vivo; conditions: i.v. tail vein
Method: An aqueous solution of Na3[Lu3(H−3tacita)2](in 10 mM trometamol buffer, pH 7.4, 148 mg Lu/mL) was injected in the tail vein of 1-3 mice for each dose group (22-25 g) at increasing doses ranging from 1000 to 3000 mg Lu/kg. The behaviour of the animals and the survival after 7 d was recorded.

[4] = Excretion in rats (Hafnium in urine, faeces, organs and carcass by ICP-MS); assay type: in vivo; conditions: i.v. 150 mg Hf/kg
Method: An aqueous solution of [Hf3(H−3tacitp)2](in 10 mM trometamol buffer, pH 7.4, 60 mg Hf/mL) was injected in the tail vein of 3 rats (ca. […]) at a dose of 150 mg Hf/kg. Urine samples were collected at the following time intervals: 0-0.5, 0.5-1, 1-3, 3-6, 6-24 h and then daily until day 7. Faeces was collected daily until day 7. On day 7 the animals were sacrificed and the following organs were excised: liver, kidneys, spleen, heart, lung, brain, lymph nodes, muscle, gut, duodenum, skin, bone marrow, bone. The remaining body was freeze dried and ground to obtain a fine powder.
The Hafnium concentration in all specimen was determined after digestion in oxidizing solution (nitric acid and hydrogen peroxide) at elevated pressure and temperature. The measurement of Hafnium was performed by ICP-MS.

[5] = Pharmacokinetics in rats (Hafnium blood concentration by ICP-MS, 3-compartment model); assay type: in vivo; conditions: i.v. 150 mg Hf/kg
Method: An aqueous solution of [Hf3(H−3tacitp)2](in 10 mM trometamol buffer, pH 7.4, 60 mg Hf/mL) was injected in the tail vein of 3 rats (ca. 250 g) at a dose of 150 mg Hf/kg. Blood samples were collected via a catheter from the arteria carotis at the following times: 1, 2, 5, 10, 15, 30, 60, 90, 120, 240, 360 and 1440 min after injection.
The Hafnium concentration in all blood samples was determined after digestion in oxidizing solution (nitric acid and hydrogen peroxide) at elevated pressure and temperature. The measurement of Hafnium was performed by ICP-MS.
The pharmacokinetic parameters were obtained for each animal by fitting the blood concentrations to a 3-compartment model, using the software WinNonlin.

Substance: Bis{μ3-[(all-cis)-2-{[(carboxy-1κO)methyl]amino-1κN}-4-{[(carboxy-2κO)methyl]amino-2κN}-6-{[(carboxy-3κO)methyl]amino-3κN}cyclohexane-1,3,5-triolate-1κ^2O^1,O^3:2κ^2O^3,O^5:3κ^2O^1,O^5]}trihafnium(IV) [Example 1]
Stability [1]: 102%

Substance: Trisodium bis{μ3-[(all-cis)-2-{[(carboxy-1κO)ethyl](methyl)-amino-1κN}-4-{[(carboxy-2κO)ethyl](methyl)amino-2κN}-6-{[(carboxy-3κO)ethyl]-(methyl)amino-3κN}cyclohexane-1,3,5-triolate-1κ^2O^1,O^3:2κ^2O^3,O^5:3κ^2O^1,O^5]}trilutetate(III) [Example 19]
Stability [1]: 90%

Substance: Trisodium bis{μ3-[(all-cis)-2-{[(carboxy-1κO)methyl]amino-1κN}-4-{[(carboxy-2κO)methyl]amino-2κN}-6-{[(carboxy-3κO)methyl]amino-3κN}cyclohexane-1,3,5-triolate-1κ^2O^1,O^3:2κ^2O^3,O^5:3κ^2O^1,O^5]}trilutetate(III) [Example 2]
CT signal change in blood vessels and heart chambers during passage of the diagnostic agent [2]: strong signal increase
survival after 7 d ([3]; 1000 mg Lu/kg): all animals survived
survival after 7 d ([3]; 2000 mg Lu/kg): all animals survived
survival after 7 d ([3]; 2500 mg Lu/kg): all animals survived
survival after 7 d ([3]; 3000 mg Lu/kg): 2 of 3 animals died
Stability [1]: 100%

Continued, in another order:

Stability [1]: 96%
Substance: Trisodium bis{μ3-(all-cis)-2-{[(carboxy-1κO)ethyl](methyl)-amino-1κN}-4-{[(carboxy-2κO)ethyl](methyl)amino-2κN}-6-{[(carboxy-3κO)ethyl]-(methyl)amino-3κN}cyclohexane-1,3,5-triolate-1κ^2O^1,O^3:2κ^2O^3,O^5:3κ^2O^1,O^5]}triytterbate(II) [Example 23]

injected Hafnium excreted via the urine ([4]; after 1 d, cumulative): 96%
injected Hafnium found in all organs and the carcass together ([4]; after 7 d): 0.33%
injected Hafnium excreted via the urine ([4]; after 7 d, cumulative): 97%
injected Hafnium found in faeces ([4]; after 7 d, cumulative): About 1.3%
total plasma clearance [5]: 10 ± 0.6 mL/min/kg
blood half live ([5]; elimination phase): 22.6 ± 3.1 min
volume of distribution ([5]; elimination phase): 0.31±0.01 I/kg
Substance: Bis{μ3-[(all-cis)-2-{[(carboxy-1κO)ethyl]amino-1κN}-4-{[(carboxy-2κO)ethyl]amino-2κN}-6-{[(carboxy-3κO)ethyl]amino-3κN}cyclohexane-1,3,5-triolate-1κ^2O^1,O^3:2κ^2O^3,O^5:3κ^2O^1,O^5]}trihafnium(IV) [Example 13]
Hafnium content of organs other than kidney ([4]; after 7 d): ≤ 0.01 % of the injected dose/g organ (wet weight)
